Experiments:
Conditions in all cases: 72 h
[1] = tested on: myeloid leukemia patient primary cells Pat.6; experiment: cell viability (% survival relative to DMSO control); higher = less cytotoxic
In short: (§1)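 Mononuclear cells from patients with AML or CML were thawed, purified on Ficoll and placed in RPMI 1640 with 10% FBS at 10,000 cells/well on 384-well plates. The plates came pre-printed with 70 compounds at five tenfold concentrations spanning 1–10,000 nM, in duplicate, and cells were exposed for 72 h. CellTiter-Glo gave viability, scaled between DMSO wells and wells with 10 μM proteasome inhibitor. Where reported, area under the curve was obtained from log-logistic fits with four parameters using the drc and PharmacoGx R packages.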

[2] = tested on: myeloid leukemia patient primary cells Pat.1; experiment: as above
In short: as §1

[3] = tested on: myeloid leukemia patient primary cells Pat.2; experiment: as above
In short: as §1

[4] = tested on: myeloid leukemia patient primary cells Pat.8; experiment: as above
In short: as §1

[5] = tested on: myeloid leukemia patient primary cells Pat.13; experiment: as above
In short: as §1

[6] = tested on: myeloid leukemia patient primary cells Pat.4; experiment: as above
In short: as §1

[7] = tested on: myeloid leukemia patient primary cells Pat.15; experiment: as above
In short: as §1

[8] = tested on: myeloid leukemia patient primary cells Pat.14; experiment: as above
In short: as §1

[9] = tested on: myeloid leukemia patient primary cells Pat.5; experiment: as above
In short: as §1

[10] = tested on: myeloid leukemia patient primary cells Pat.10; experiment: as above
In short: as §1

[11] = tested on: myeloid leukemia patient primary cells Pat.9; experiment: as above
In short: as §1

[12] = tested on: myeloid leukemia patient primary cells Pat.12; experiment: as above
In short: as §1

[13] = tested on: myeloid leukemia patient primary cells Pat.11; experiment: as above
In short: as §1

[14] = tested on: myeloid leukemia patient primary cells Pat.3; experiment: as above
In short: as §1

[15] = tested on: myeloid leukemia patient primary cells Pat.7; experiment: as above
In short: as §1

[16] = tested on: THP-1
In short: (§2)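 In 384-well plates holding acoustically pre-printed compounds at five tenfold doses from 1 to 10,000 nM, in duplicate, fifteen myeloid leukaemia cell lines were grown in RPMI 1640 for 72 h at 37 °C with 5% CO2. Luminescent ATP viability was scaled between vehicle and a positive control at 10 µM. The IC50 was then taken from log-logistic dose–response fits with four parameters.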

[17] = tested on: K-562
In short: as §2

[18] = tested on: HEL
In short: as §2

[19] = tested on: SHI-1
In short: as §2

[20] = tested on: LAMA-84
In short: as §2

[21] = tested on: KU-812
In short: as §2

[22] = tested on: BV-173
In short: as §2

[23] = tested on: MV4-11
In short: as §2

[24] = tested on: Mono-Mac-6
In short: as §2

[25] = tested on: MOLM-13
In short: as §2

[26] = tested on: HL-60; experiment: area under dose-response curve (viability, 1 nM-10 uM) (fraction (0-1)); higher = more sensitive
In short: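 Four-parameter log-logistic fits in drc and PharmacoGx supplied area under the curve where it is given. Underlying viability came from CellTiter-Glo, normalised to DMSO and proteasome-inhibitor wells, with the proteasome inhibitor at 10 μM. HL-60 cells in RPMI 1640 plus 10% FBS had been rescreened against the full library at five tenfold concentrations of 1–10,000 nM, in duplicate on 384-well plates, with DMSO or 100 nM of one of three metabolic inhibitors, for 72 h at 37 °C, 5% CO2.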

O=c1cc(N2CCOCC2)oc2c(-c3ccccc3)cccc12
Conditions | area under dose-response curve, co-treatment: AZD3965 100 nM | area under dose-response curve, co-treatment: GSK2194069 100 nM | area under dose-response curve, co-treatment: pictilisib 100 nM | cell viability, 1 nM [%] | cell viability, 10 nM [%] | cell viability, 100 nM [%] | cell viability, 1000 nM [%] | cell viability, 10000 nM [%]
[1] | – | – | – | 91.8 | 82.3 | 93.2 | 97 | 68.3
[2] | – | – | – | 77.8 | 83.5 | 78 | 63.6 | 27.5
[3] | – | – | – | 92.1 | 87.9 | 99.7 | 91.1 | 67.2
[4] | – | – | – | 88.3 | 86 | 92.4 | 67.1 | 61.5
[5] | – | – | – | 88.7 | 95.7 | 83.6 | 91.4 | 45.6
[6] | – | – | – | 78.8 | 98.5 | 86.1 | 63.1 | 14.4
[7] | – | – | – | 77.5 | > 100 | 97 | 81.7 | 10.2
[8] | – | – | – | 86.4 | 56.8 | 91.1 | 77.9 | 58.3
[9] | – | – | – | 47.8 | 0.265 | 70.4 | 58.3 | < 0
[10] | – | – | – | 31.3 | 46.9 | 78.1 | 50.8 | 22.6
[11] | – | – | – | 63.7 | 15.2 | 77.7 | 54.8 | 12.5
[12] | – | – | – | 91.4 | 98.3 | 92.6 | 97.4 | 92.4
[13] | – | – | – | 88.7 | 94.2 | 96.7 | 91.1 | 65.2
[14] | – | – | – | 96.2 | 37.6 | 92.2 | 80 | 61.6
[15] | – | – | – | 84.4 | 64.8 | 94.8 | 92.1 | 80.5
[26] | < 0.0301 | < 0.0301 | 0.058 | – | – | – | – | –

Conditions | IC50 (cell viability) [nM]
[16] | > 10000
[17] | 291
[18] | 48.7
[19] | 3600
[20] | > 10000
[21] | > 10000
[22] | 23.7
[23] | 39.2
[24] | 3750
[25] | 185

Cc1cc2c(C(C)C)c(O)c(O)c(C=O)c2c(O)c1-c1c(C)cc2c(C(C)C)c(O)c(O)c(C=O)c2c1O [Gossypol]
Conditions | area under dose-response curve, co-treatment: AZD3965 100 nM | area under dose-response curve, co-treatment: DMSO vehicle | area under dose-response curve, co-treatment: GSK2194069 100 nM | area under dose-response curve, co-treatment: pictilisib 100 nM | cell viability, 1 nM [%] | cell viability, 10 nM [%] | cell viability, 100 nM [%] | cell viability, 1000 nM [%] | cell viability, 10000 nM [%]
[1] | – | – | – | – | 99.8 | 80.8 | 84.4 | 83.7 | 20.9
[2] | – | – | – | – | 82.1 | 92.5 | 92.2 | 78.8 | 14.3
[3] | – | – | – | – | 96.6 | 92.2 | 93 | 80 | 34.6
[4] | – | – | – | – | 82.2 | 89.7 | 89.9 | 84.7 | 6.5
[5] | – | – | – | – | 87.8 | 69.7 | 83.6 | 75.4 | 15
[6] | – | – | – | – | 84.4 | 90.7 | 77.1 | 81.5 | 8.19
[7] | – | – | – | – | 98.2 | 85.9 | 89.7 | 95.7 | 27.3
[8] | – | – | – | – | > 100 | 42.9 | 69.1 | 0.583 | 63.3
[9] | – | – | – | – | 98.7 | 6.75 | 22.8 | 5.84 | 93.9
[10] | – | – | – | – | 89.2 | 41.6 | 43.3 | 2.16 | 89.9
[11] | – | – | – | – | 63.1 | 7.88 | 22 | 6.35 | 28.7
[12] | – | – | – | – | 98.6 | 94 | 88.1 | 99.1 | 50.5
[13] | – | – | – | – | 98.5 | 98.9 | 91.9 | 84.6 | 11.6
[14] | – | – | – | – | 96.5 | 28 | 70.6 | < 0 | 3.08
[15] | – | – | – | – | 72.1 | 28.8 | 60.8 | < 0 | < 0
[26] | 0.123 | 0.124 | 0.154 | 0.145 | – | – | – | – | –

Conditions | IC50 (cell viability) [nM]
[16] | 2540
[17] | 3670
[18] | 3550
[19] | 6250
[20] | 3340
[21] | 2410
[22] | 1600
[23] | 3430
[24] | 2810
[25] | 2980

CCN(CC)C(=S)SSC(=S)N(CC)CC [Disulfiram]
Conditions | area under dose-response curve, co-treatment: AZD3965 100 nM | area under dose-response curve, co-treatment: DMSO vehicle | area under dose-response curve, co-treatment: GSK2194069 100 nM | area under dose-response curve, co-treatment: pictilisib 100 nM | cell viability, 1 nM [%] | cell viability, 10 nM [%] | cell viability, 100 nM [%] | cell viability, 1000 nM [%] | cell viability, 10000 nM [%]
[1] | – | – | – | – | 99.6 | 94.6 | 80.5 | 2.26 | 4.13
[2] | – | – | – | – | 95 | 82.2 | 79.8 | 1.11 | 0.116
[3] | – | – | – | – | 95.6 | 93.9 | 39.1 | 0.978 | 3.7
[4] | – | – | – | – | 61.6 | 76.7 | 39.6 | 0.473 | 1.14
[5] | – | – | – | – | 94.8 | 91 | 79.5 | < 0 | 4.12
[6] | – | – | – | – | 94.9 | 90.7 | 96.1 | 0.934 | 6.79
[7] | – | – | – | – | 96.8 | 87.7 | 9.1 | 1.3 | 0.0644
[8] | – | – | – | – | 89.1 | 93.9 | 87.8 | 60.5 | 21.4
[9] | – | – | – | – | 76.6 | 76.8 | 74.5 | 26.1 | 5.84
[10] | – | – | – | – | 85 | 72.2 | 47.8 | 56.6 | > 100
[11] | – | – | – | – | 71.8 | > 100 | 86.3 | 33.6 | 20.9
[12] | – | – | – | – | 98 | 95.2 | 54 | 3.19 | < 0
[13] | – | – | – | – | 99.9 | 99.2 | 98.7 | 2.1 | 3.25
[14] | – | – | – | – | > 100 | 99.2 | 99.7 | 84.6 | 1.56
[15] | – | – | – | – | 83.4 | 86.8 | 61.1 | 71.7 | < 0
[26] | < 0.0301 | < 0.0301 | < 0.0301 | < 0.0301 | – | – | – | – | –

Conditions | IC50 (cell viability) [nM]
[16] | 70.8
[17] | 447
[18] | > 10000
[19] | 72.8
[20] | > 10000
[21] | > 10000
[22] | 778
[23] | 7020
[24] | 171
[25] | > 10000
